This assay concerns BDF1 mice, colon carcinoma 38 sc, T/C %. The assay is described as follows: NCI In Vivo Anticancer Drug Screen. Data for tumor model Colon Carcinoma 38 (subcutaneous) in B6D2F1 (BDF1) mice. A digest of the protocol:
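T/C readout: treated group (T) measurement over vehicle control group (C) measurement. Endpoint is survival or tumor size in mice bearing a transplanted tumor.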

Setting [1] is: endpoint: median tumor weight (est.), dose: 25.0 mg/kg/injection, schedule: Q07DX003 (ip), vehicle: Klucel (hydroxypropylcellulose) (HPC), higher = larger tumour.
Setting [2] is: endpoint: median tumor weight (est.), dose: 50.0 mg/kg/injection, schedule: Q07DX003 (ip), vehicle: Klucel (hydroxypropylcellulose) (HPC), higher = larger tumour.

Where “and” joins values, the source holds several entries; their conditions need not be identical. Equal values may be shown once. Inconclusive results are not listed.

For 6 compounds, T/C results are on record in PubChem BioAssay AID212 (DTP/NCI, 2004).

Take `COc1cc2cc3cc4cc(OC)c(OC)cc4c(C)[n+]3cc2cc1OC` (tested in a mixture with another compound): the T/C is 74 % of control and 94 % of control (endpoint: median tumor weight (est.), dose: 12.5 mg/kg/injection, schedule: Q07DX002 (ip), vehicle: saline, higher = larger tumour); 83 % of control (endpoint: median tumor weight (est.), dose: 12.5 mg/kg/injection, schedule: Q07DX002 (ip), vehicle: suspension in saline, higher = larger tumour); 85 % of control (endpoint: median tumor weight (est.), dose: 25.0 mg/kg/injection, schedule: Q07DX002 (ip), vehicle: suspension in saline, higher = larger tumour); 81 % of control and 100 % of control (endpoint: median tumor weight (est.), dose: 50.0 mg/kg/injection, schedule: Q07DX002 (ip), vehicle: saline, higher = larger tumour); 98 % of control (endpoint: median tumor weight (est.), dose: 50.0 mg/kg/injection, schedule: Q07DX002 (ip), vehicle: suspension in saline, higher = larger tumour); 82 % of control and 88 % of control (endpoint: median tumor weight (est.), dose: 100.0 mg/kg/injection, schedule: Q07DX002 (ip), vehicle: saline, higher = larger tumour). Further, the T/C is 116 % of control (endpoint: median tumor weight (est.), dose: 100.0 mg/kg/injection, schedule: Q07DX002 (ip), vehicle: suspension in saline, higher = larger tumour); 74 % of control (endpoint: median tumor weight (est.), dose: 200.0 mg/kg/injection, schedule: Q07DX002 (ip), vehicle: saline, higher = larger tumour); 50 % of control (endpoint: median tumor weight (est.), dose: 200.0 mg/kg/injection, schedule: Q07DX002 (ip), vehicle: suspension in saline, higher = larger tumour); 89 % of control (endpoint: median tumor weight (est.), dose: 400.0 mg/kg/injection, schedule: Q07DX002 (ip), vehicle: suspension in saline, higher = larger tumour).
With `O=C1c2ccccc2C(=O)c2c(NCCNCCO)ccc(NCCNCCO)c21`, the T/C reads like this: (endpoint: median survival time, dose: 20.0 mg/kg/injection, schedule: Q04DX004 (ip), vehicle: saline, higher = longer survival) 110 % of control; (endpoint: median survival time, dose: 40.0 mg/kg/injection, schedule: Q04DX004 (ip), vehicle: saline, higher = longer survival) 110 % of control; (endpoint: median survival time, dose: 80.0 mg/kg/injection, schedule: Q04DX004 (ip), vehicle: saline, higher = longer survival) 120 % of control; (endpoint: median tumor weight (est.), dose: 1.0 mg/kg/injection, schedule: Q07DX002 (ip), vehicle: saline, higher = larger tumour) 89 % of control; (endpoint: median tumor weight (est.), dose: 1.5 mg/kg/injection, schedule: Q07DX003 (ip), vehicle: saline with Tween-80, higher = larger tumour) 47 % of control and 64 % of control; (endpoint: median tumor weight (est.), dose: 2.0 mg/kg/injection, schedule: Q07DX002 (ip), vehicle: saline, higher = larger tumour) 77 % of control. The T/C runs as follows: (endpoint: median tumor weight (est.), dose: 3.0 mg/kg/injection, schedule: Q07DX003 (ip), vehicle: saline with Tween-80, higher = larger tumour) 81 % of control; (endpoint: median tumor weight (est.), dose: 3.0 mg/kg/injection, schedule: Q07DX003 (ip), vehicle: saline, higher = larger tumour) 59 % of control and 72 % of control; (endpoint: median tumor weight (est.), dose: 4.0 mg/kg/injection, schedule: Q07DX002 (ip), vehicle: acid diluted with saline, higher = larger tumour) 82 % of control; (endpoint: median tumor weight (est.), dose: 4.0 mg/kg/injection, schedule: Q07DX002 (ip), vehicle: saline, higher = larger tumour) 66 % of control; (endpoint: median tumor weight (est.), dose: 6.0 mg/kg/injection, schedule: Q07DX003 (ip), vehicle: saline with Tween-80, higher = larger tumour) 11 % of control; (endpoint: median tumor weight (est.), dose: 8.0 mg/kg/injection, schedule: Q07DX002 (ip), vehicle: Klucel (hydroxypropylcellulose) (HPC), higher = larger tumour) 107 % of control. Besides, the T/C reads like this: (endpoint: median tumor weight (est.), dose: 8.0 mg/kg/injection, schedule: Q07DX002 (ip), vehicle: acid diluted with saline, higher = larger tumour) 70 % of control; (endpoint: median tumor weight (est.), dose: 8.0 mg/kg/injection, schedule: Q07DX002 (ip), vehicle: saline, higher = larger tumour) 82 % of control; (endpoint: median tumor weight (est.), dose: 8.0 mg/kg/injection, schedule: Q07DX003 (ip), vehicle: Klucel (hydroxypropylcellulose) (HPC), higher = larger tumour) 65 % of control; (endpoint: median tumor weight (est.), dose: 8.0 mg/kg/injection, schedule: Q07DX003 (ip), vehicle: water, higher = larger tumour) 56 % of control; (endpoint: median tumor weight (est.), dose: 16.0 mg/kg/injection, schedule: Q07DX002 (ip), vehicle: Klucel (hydroxypropylcellulose) (HPC), higher = larger tumour) 120 % of control; (endpoint: median tumor weight (est.), dose: 16.0 mg/kg/injection, schedule: Q07DX002 (ip), vehicle: acid diluted with saline, higher = larger tumour) 39 % of control. In addition, the T/C was 48 % of control (endpoint: median tumor weight (est.), dose: 16.0 mg/kg/injection, schedule: Q07DX002 (ip), vehicle: saline, higher = larger tumour); 54 % of control (endpoint: median tumor weight (est.), dose: 16.0 mg/kg/injection, schedule: Q07DX003 (ip), vehicle: Klucel (hydroxypropylcellulose) (HPC), higher = larger tumour); 47 % of control (endpoint: median tumor weight (est.), dose: 16.0 mg/kg/injection, schedule: Q07DX003 (ip), vehicle: water, higher = larger tumour); 46 % of control under setting [1]; 4 % of control and 18 % of control and 25 % of control (endpoint: median tumor weight (est.), dose: 25.0 mg/kg/injection, schedule: Q07DX003 (iv), vehicle: Klucel (hydroxypropylcellulose) (HPC), higher = larger tumour); 65 % of control (endpoint: median tumor weight (est.), dose: 32.0 mg/kg/injection, schedule: Q07DX002 (ip), vehicle: Klucel (hydroxypropylcellulose) (HPC), higher = larger tumour). For the same compound, the T/C by setting is: (endpoint: median tumor weight (est.), dose: 32.0 mg/kg/injection, schedule: Q07DX002 (ip), vehicle: acid diluted with saline, higher = larger tumour) 4 % of control; (endpoint: median tumor weight (est.), dose: 32.0 mg/kg/injection, schedule: Q07DX002 (ip), vehicle: saline, higher = larger tumour) 10 % of control; (endpoint: median tumor weight (est.), dose: 32.0 mg/kg/injection, schedule: Q07DX003 (ip), vehicle: Klucel (hydroxypropylcellulose) (HPC), higher = larger tumour) 52 % of control; (endpoint: median tumor weight (est.), dose: 32.0 mg/kg/injection, schedule: Q07DX003 (ip), vehicle: water, higher = larger tumour) 28 % of control; under setting [2], 45 % of control; (endpoint: median tumor weight (est.), dose: 50.0 mg/kg/injection, schedule: Q07DX003 (iv), vehicle: Klucel (hydroxypropylcellulose) (HPC), higher = larger tumour) 11 % of control and 17 % of control. In addition, the T/C (endpoint: median tumor weight (est.), dose: 64.0 mg/kg/injection, schedule: Q07DX002 (ip), vehicle: Klucel (hydroxypropylcellulose) (HPC), higher = larger tumour) is 26 % of control.
`O=C(O)[C@H](Cc1ccccc1)N1C(=O)c2ccccc2C1=O`: the T/C was 98 % of control (endpoint: median tumor weight (est.), dose: 50.0 mg/kg/injection, schedule: Q07DX002 (ip), vehicle: DMSO, higher = larger tumour) and 108 % of control (endpoint: median tumor weight (est.), dose: 100.0 mg/kg/injection, schedule: Q07DX002 (ip), vehicle: DMSO, higher = larger tumour).
With `NC1=NCN(C2OC(CO)C(O)C2O)C(=O)N1` (stereo not drawn), the T/C reads like this: (endpoint: median tumor weight (est.), dose: 25.0 mg/kg/injection, schedule: Q07DX003 (ip), vehicle: saline, higher = larger tumour) 57 % of control and 71 % of control; (endpoint: median tumor weight (est.), dose: 50.0 mg/kg/injection, schedule: Q07DX003 (ip), vehicle: saline, higher = larger tumour) 60 % of control and 79 % of control; (endpoint: median tumor weight (est.), dose: 100.0 mg/kg/injection, schedule: Q07DX003 (ip), vehicle: saline, higher = larger tumour) 54 % of control and 75 % of control; (endpoint: median tumor weight (est.), dose: 400.0 mg/kg/injection, schedule: Q07DX003 (ip), vehicle: saline, higher = larger tumour) 57 % of control and 58 % of control; (endpoint: median tumor weight (est.), dose: 600.0 mg/kg/injection, schedule: Q07DX003 (ip), vehicle: saline, higher = larger tumour) 94 % of control; (endpoint: median tumor weight (est.), dose: 1000.0 mg/kg/injection, schedule: Q07DX003 (ip), vehicle: saline, higher = larger tumour) 79 % of control. Further, the T/C is 63 % of control (endpoint: median tumor weight (est.), dose: 1200.0 mg/kg/injection, schedule: Q07DX003 (ip), vehicle: saline, higher = larger tumour); 84 % of control (endpoint: median tumor weight (est.), dose: 1400.0 mg/kg/injection, schedule: Q07DX003 (ip), vehicle: saline, higher = larger tumour); 47 % of control (endpoint: median tumor weight (est.), dose: 1600.0 mg/kg/injection, schedule: Q07DX003 (ip), vehicle: saline, higher = larger tumour).
As for `CCc1c(CC(=O)O)c2cc(C)ccc2n1Cc1ccc(Cl)cc1`, the T/C reads like this: (endpoint: median tumor weight (est.), dose: 3.13 mg/kg/injection, schedule: Q07DX002 (ip), vehicle: Klucel (hydroxypropylcellulose) (HPC), higher = larger tumour) 107 % of control; (endpoint: median tumor weight (est.), dose: 6.25 mg/kg/injection, schedule: Q07DX002 (ip), vehicle: Klucel (hydroxypropylcellulose) (HPC), higher = larger tumour) 45 % of control; (endpoint: median tumor weight (est.), dose: 6.25 mg/kg/injection, schedule: Q07DX003 (ip), vehicle: Klucel (hydroxypropylcellulose) (HPC), higher = larger tumour) 72 % of control; (endpoint: median tumor weight (est.), dose: 12.5 mg/kg/injection, schedule: Q07DX002 (ip), vehicle: Klucel (hydroxypropylcellulose) (HPC), higher = larger tumour) 76 % of control; (endpoint: median tumor weight (est.), dose: 12.5 mg/kg/injection, schedule: Q07DX003 (ip), vehicle: Klucel (hydroxypropylcellulose) (HPC), higher = larger tumour) 74 % of control; (endpoint: median tumor weight (est.), dose: 25.0 mg/kg/injection, schedule: Q07DX002 (ip), vehicle: Klucel (hydroxypropylcellulose) (HPC), higher = larger tumour) 60 % of control. Also, the T/C runs as follows: under setting [1], 97 % of control; (endpoint: median tumor weight (est.), dose: 50.0 mg/kg/injection, schedule: Q07DX002 (ip), vehicle: Klucel (hydroxypropylcellulose) (HPC), higher = larger tumour) 98 % of control; under setting [2], 116 % of control; (endpoint: median tumor weight (est.), dose: 100.0 mg/kg/injection, schedule: Q07DX002 (ip), vehicle: Klucel (hydroxypropylcellulose) (HPC), higher = larger tumour) 159 % of control; (endpoint: median tumor weight (est.), dose: 100.0 mg/kg/injection, schedule: Q07DX003 (ip), vehicle: Klucel (hydroxypropylcellulose) (HPC), higher = larger tumour) 120 % of control; (endpoint: median tumor weight (est.), dose: 200.0 mg/kg/injection, schedule: Q07DX003 (ip), vehicle: Klucel (hydroxypropylcellulose) (HPC), higher = larger tumour) 48 % of control.
Regarding `NC(=O)/C=C/c1c[nH]c2nccnc12`, the T/C (endpoint: median tumor weight (est.), dose: 6.25 mg/kg/injection, schedule: Q07DX002 (ip), vehicle: water, higher = larger tumour) is 59 % of control; the T/C (endpoint: median tumor weight (est.), dose: 12.5 mg/kg/injection, schedule: Q07DX002 (ip), vehicle: water, higher = larger tumour) was 97 % of control; the T/C (endpoint: median tumor weight (est.), dose: 25.0 mg/kg/injection, schedule: Q07DX002 (ip), vehicle: water, higher = larger tumour) was 116 % of control; the T/C (endpoint: median tumor weight (est.), dose: 100.0 mg/kg/injection, schedule: Q07DX002 (ip), vehicle: water, higher = larger tumour) is 94 % of control.
